Experimental data reported in PMC10403513, “Tasmanian devil cathelicidins exhibit anticancer activity against Devil Facial Tumour Disease (DFTD) cells” (Scientific Reports, 2023).
No end group written: not given here.

Assays:
human cell line A549 = settings: cited from earlier work
Method: Here we aimed to identify cathelicidin candidates for future development as anti-DFTD therapeutics. Four Tasmanian devil cathelicidins (Saha-CATH3, 4, 5 and 6) were toxic to DFT1 1426 cells at high concentrations: Saha-CATH3 at concentrations ≥ 62.5 µg/mL; Saha-CATH4 at 500 µg/mL; Saha-CATH5 at concentrations ≥ 125 µg/mL and Saha-CATH6 at concentrations ≥ 250 µg/mL. Previous studies have shown that two of these peptides (Saha-CATH3 and 4) are non-toxic to human cell line A549[44]. The other two (Saha-CATH5 and 6) reduced cell viability at high concentrations (500 µg/mL), resulting in 42% and 5 ...

human red blood cells = settings: cited from earlier work
Text: Cathelicidins have been isolated from many vertebrate taxa[34]–[37]. However, they have undergone gene expansion in marsupials due to the need for additional protection of immunologically naïve young during development in the pouch. […] During development within the pouch, young are exposed to diverse microbial flora, some of which are pathogenic. This has likely encouraged the lineage-specific expansion of cathelicidins in marsupials, resulting in mult ...

DFT1 1426 cells [1] = assay: RNAseq differential gene expression in peptide-treated DFT1 1426 cells; format: cell-based, Tasmanian devil (Sarcophilus harrisii); settings: 500 μg/mL, 10 h, n = 3, vs vehicle control; for Fold change, gene IL6: cytokine; for Fold change, gene MYD88: immune signaling; for percentage of DE genes: of 15,548 genes; for Fold change, gene RUNX1: transcription factor
Method: RNAseq was used to characterize the mechanisms underlying the anticancer activity of the peptides. Confluent DFT1 1426 cells (passage number 25) were re-suspended at a concentration of 5 × 10^5 cells/ml and 1 mL seeded into each well of a sterile flat-bottom polystyrene 12-well plate (Corning). Following incubation for 24 h at 35 °C 5% CO2, media was aspirated from the cells and replaced with 500 μL of RPMI 1640 with 2 mM L-glutamine, 10% FBS and 10% AmnioMax II. 500 μL of each 1 mg/mL peptide solution (Saha-CATH1 to 7) was then added to the plate in triplicate, to give a final peptide concentration of 500 μg/mL. […] A vehicle control was also added to the plate in triplicate.
The plate was then incubated for a further 10 h at 35 °C in 5% CO2. This incubation period was selected as the cytotoxicity assay indicated it was sublethal for most of the peptides and would maintain sufficient cell viability to extract intact RNA. Media was then aspirated from the cells, which were washed twice with Dulbecco’s phosphate buffered saline (DPBS) (Sigma-Aldrich).
Total RNA was extracted from each replicate of the peptide-treated and vehicle control cells (n = 3) using the RNeasy mini kit (Qiagen) with cell lysis directly in each well of the 12 well plate. Total RNA was quality assessed using the RNA nano 6000 kit on the Agilent Bioanalyzer with all samples displaying a RIN score between 5 and 9. In total, 24 RNA samples corresponding to three treatments per peptide (Saha-CATH1 to 7) and a vehicle control were submitted to Ramaciotti Centre for Genomics (The University of New South Wales) for sequencing. Illumina TruSeq mRNA libraries were prepared for all samples, which were sequenced as 2 × 150 bp paired-end reads across an SP flowcell on the NovaSeq6000.
Raw reads were quality assessed using FastQC v0.11.8[47], then quality and length trimmed using Trimmomatic v0.39[48] using default parameters. Trimmed reads for each treatment (n = 3) and the control (n = 3) were aligned to the Tasmanian devil reference genome v7.0 (NCBI: GCA_000189315.1[49] using STAR v2.7.8a[50]. Alignments for each treatment were summarized into gene counts using featureCounts in the subread package v1.5.1[51].
Gene counts were used as input for differential expression analysis in R[52]. Genes with less than 50 counts across all samples were removed from the analysis, as these were unlikely to be biologically relevant and lacked sufficient statistical power. Firstly, the data was normalized by trimmed mean of M values (TMM) using edgeR v3.32.1[53] to account for any composition bias between libraries and to give an effective library size for downstream analysis. Multidimensional scaling (MDS) was used to check for variation between treatments using limma v3.36.0[54]. Expression levels were then normalized using upper-quartile normalization in EDAseq v2.24.0[55] to account for differences in distribution between lanes, such as sequencing depth. Differential expression analysis was performed using voom in the limma v3.36.0 package.
(§1) Over-representation analysis of Biological Processes was conducted in clusterProfiler v3.18.1[57]. Statistical significance was adjusted for multiple comparisons using the Benjamini–Hochberg method, and terms were considered significant when p-adj < 0.05. To remove general terms, gene sets larger than 200 were removed, and the simplify function was used to remove redundant GO terms. Further pathway analysis was conducted in IPA (Qiagen)[58], using mammal as the species type and nervous system for the tissue/cell type.

DFT1 1426 cells [2] = format: cell-based, Tasmanian devil (Sarcophilus harrisii); settings: for decrease in cell viability compared to the growth control / incubation period required before exhibiting a similar level of toxicity to Saha-CATH5: 500 μg/mL, DFT1 1426 cells; for decrease in cell viability compared to the growth control: 36 h, alamarBlue, quadruplicate; for cytotoxic concentration (cell viability reduced by more than 50%): 18 h; for concentration toxic to DFT1 1426 cells: summary in the discussion
Method: The DFT1 cell line 1426, derived from a primary DFT1 tumour, was obtained from Menzies Institute for Medical Research, University of Tasmania. The cell line was maintained in RPMI 1640 media with 2 mM L-glutamine (Gibco) supplemented with 10% AmnioMax II (Gibco), 10% heat-inactivated foetal bovine serum (FBS) and 1% penicillin/streptomycin (Sigma-Aldrich), in T75 flasks (Nunc) at 35 °C 5% CO2. Cells were passaged using trypsin–EDTA (Sigma-Aldrich) when 90% confluent.
Toxicity of seven Tasmanian devil cathelicidins against DFT1 1426 cells was determined for twofold dilutions from 500 to 15.62 µg/mL, and four different timepoints (12, 18, 24 and 36 h). Confluent DFT1 1426 cells (passage 22) were re-suspended in RPMI 1640 with 10% FBS and 10% AmnioMax II at a concentration of 5 × 10^5 cells/mL, and 100μL seeded into each well of a sterile flat-bottom 96 well plate (Corning), with individual plates for each timepoint (12, 18, 24 and 36 h). All plates were incubated for 24 h at 35 °C 5% CO2 prior to the cytotoxicity test.
At 0 h, 100 μL of each peptide dilution was then added to each plate in quadruplicate for all timepoints (12, 18, 24 and 36 h), resulting in a final peptide concentrations of 500 μg/mL, 250 μg/mL, 125 μg/mL, 62.50 μg/mL, 31.25 μg/mL and 15.62 μg/mL. […] An untreated growth control of RPMI 1640, a positive control of dimethylsulfoxide (DMSO) (15%) and sterility control of RPMI 1640 only (no cells) were also included for each time point.
For the 12 h timepoint, 10% alamarBlue was immediately added to each well of the plate after addition of the peptide. For the remaining timepoints, plates were incubated for an additional 6, 12 or 24 h after addition of the peptides, then 10% alamarBlue added to each well. For all timepoints, after the addition of alamarBlue cells were incubated for a further 12 h, resulting in a total peptide incubation period of 12, 18, 24 and 36 h. Absorbance of alamarBlue for all timepoints was determined at 570 nm and 630 nm on a Biotek 800 TS microplate reader. Cell viability was calculated according to manufacturer’s instructions and expressed as a percentage of cell survival compared to the untreated growth control.
A one-sample, one-tailed t-test was used to test for significant difference in viability between treated cells and the negative growth control. A one sample, two-tailed t-test was also conducted to ensure there was no significant difference in viability between the negative growth control and the cells treated with the solvent only. Statistical analysis was conducted in R (R Development Core Team 2021).

DFT1 1426 cells [3] = assay: Ingenuity Pathway Analysis (canonical pathways) of DE genes in treated DFT1 1426 cells; format: cell-based, Tasmanian devil (Sarcophilus harrisii); settings: DE genes of cells treated with 500 μg/mL for 10 h
Method: as §1

Sequence | Fold change, gene IL1R1 (DFT1 1426 cells [1]; cytokine receptor, RNAseq) | Fold change, gene IL6R (DFT1 1426 cells [1]; cytokine receptor, RNAseq) | Fold change, gene IL6 (DFT1 1426 cells [1]; RNAseq) | Fold change, gene MYD88 (DFT1 1426 cells [1]; RNAseq) | percentage of DE genes (DFT1 1426 cells [1]) [%] | Fold change, gene RUNX1 (DFT1 1426 cells [1]; RNAseq) | decrease in cell viability compared to the growth control (DFT1 1426 cells [2]) | incubation period required before exhibiting a similar level of toxicity to Saha-CATH5 (DFT1 1426 cells [2]) [h] | cytotoxic concentration (cell viability reduced by more than 50%) (DFT1 1426 cells [2]) [µg/mL] | concentration toxic to DFT1 1426 cells (DFT1 1426 cells [2]) [µg/mL] | IPA z-score, Th17 activation pathway (DFT1 1426 cells [3]) | also measured
KRIRFFERIRDRLRDLGNRIKNRIRDFFS [Saha-CATH6] | 2.29 | 1.70 | 11.14 | 1.78 | 15.56 | 1.61 | more than 50% | 18 | ≥ 250 | ≥ 250 | 2.53 | cell survival of human cell line A549 (human cell line A549; 500 µg/mL): 59%; concentration at which moderately haemolytic (human red blood cells; human red blood cells): above 250 μg/mL; Fold change (FC), ATF3 (DFT1 1426 cells [1]; RNAseq): 5.02; Fold change (FC), CHOP (DDIT3) (DFT1 1426 cells [1]; RNAseq): 1.91; Fold change (FC), GADD34 (PPP1R15A) (DFT1 1426 cells [1]; RNAseq): 2.14; Fold change, gene IL21R (DFT1 1426 cells [1]; cytokine receptor, RNAseq): 1.58; cell viability (% of untreated growth control) (DFT1 1426 cells [2]; 500 µg/mL, after 18 h, mean of quadruplicate): 0%; IPA z-score, EIF2 signaling (DFT1 1426 cells [3]): 4.352
KRMGIFHLFWAGLRKLGNLIKNKIQQGIENFLG [Saha-CATH3] | 2.41 | 2.88 | 4.38 | 2.64 | 12.63 | 2.71 | more than 50% | 18 | 62.5 to 250 | ≥ 62.5 | 3.317 | toxicity to human cell line A549 (in words) (human cell line A549): non-toxic; haemolysis of human red blood cells (in words) (human red blood cells): not haemolytic; Fold change, gene CCND3 (DFT1 1426 cells [1]; G1-S phase transition, RNAseq): 0.62; Fold change, gene CCNE1 (DFT1 1426 cells [1]; G1-S phase transition, RNAseq): 0.57; Fold change, gene CCNE2 (DFT1 1426 cells [1]; G1-S phase transition, RNAseq): 0.61; Fold change, gene E2F2 (DFT1 1426 cells [1]; cyclin transcription factor, RNAseq): 0.48; IPA z-score, Cyclins and Cell Cycle Regulation (DFT1 1426 cells [3]): -2.333
